{"source": "patent US9023831B2", "about": "“Methods and compositions of inhibiting complement and cellular activation with Dextran Sulfate” (Novelmed Therapeutics, Inc., priority 2007, dated 2015)", "key": {"[1]": {"system": "neutrophils (CD11b expression)", "experiment": "Neutrophil activation (CD11b flow cytometry) after tubing loop", "assay_type": "cell-based, human", "from_the_text": "(§1) Same samples of blood following the tubing loop were also subjected to neutrophil specific flow cytometry. […] Similar data was obtained with multiple donors. In the Figure are shown Rotated Control (blood sample in tubing loop), Unrotated controls (samples taken out before tubing loop). Unrotated represents the background controls.\n(§2) The activation of neutrophils, monocyte and platelets were quantitated by measuring the levels of the cell-surface expression of CD11b and CD62P on neutrophils/monocytes and platelets, respectively. For CD11b labeling of neutrophils, 200 μl of whole blood collected from the circuits were immediately incubated with 20 μl of phycoerythrin (PE)-anti-CD11b antibody (Becton Dickinson, San Jose, Calif.) for 20 minutes at room temperature in a microcentrifuge tube. Then 2 ml of FACS Lysing Solution (Becton Dickinson) was added for 20 minutes at room temperature to lyse red blood cells and to fix leukocytes. The microcentrifuge tubes were centrifuged at 300 g for 5 minutes for leukocytes and 1200 g for platelets. The supernatant was aspirated and the cells resuspended in PBS for washing. The tubes were spun again, the supernatant aspirated, and the cells finally resuspended in 0.5 ml of 1% paraformaldehyde overnight prior to analysis using an BD-LSR flow cytometer (BD Biosciences). For double labeling to concomitantly identify the neutrophil population, 10 μl of fluorescein isothiocyanate (FITC)-anti-CD15 antibody (clone MMA, Becton Dickinson) were added for incubation together with PE-anti-CD11b antibody to stain neutrophils and anti-CD14 (FITC) along with PE-CD11b was used for monocytes.\n(§3) Neutrophils bear both C3a and C5a receptors. Thus, prevention of C3a/C5a production should have direct effect on CD11b expression. Monocytes have been known to bear the C3a receptors. C3a produced because of complement activation is known to activate monocytes.\n(§4) For flow cytometry measurement, the PMN (containing mainly neutrophils) and platelet populations were identified by live gating based on forward- versus side-scatter parameters and specific staining with FITC-anti-CD15 antibody and FITC-anti-CD61 antibody, respectively. The background staining was gated using isotype-matched labeled antibodies. The intensity of expression of CD11b and CD62P was represented by mean fluorescence intensity (MFI)."}, "[2]": {"system": "monocytes (CD11b expression)", "experiment": "Monocyte activation (CD11b flow cytometry) after tubing loop", "assay_type": "cell-based, human", "from_the_text": "as §1, with “monocyte” for “neutrophil”\nas §2, §3"}, "[3]": {"system": "platelets (CD62P staining)", "experiment": "Platelet activation (CD62P flow cytometry) after tubing loop", "assay_type": "cell-based, human", "method": "It was expected that platelet activation would also be inhibited. […] The inhibition of platelet activation was measured using flow cytometry following CD62P staining of activated platelets.\nIt was expected that platelet activation will also be inhibited. […] The inhibition of platelet activation was measured using flow cytometry following CD62P staining of activated platelets.\nWhile platelets bear C3a receptors, it is not clear how platelets were being activated. In an effort to downregulate platelet activation, we performed an experiment in which Dextran Sulfate was utilized in combination with aspirin. […] These surprising results present Dextran Sulfate as a lead complement inhibitory drug that down regulates both complement and cellular activation in heparinized whole human blood. Shown in FIGS. 10d and 10e are results from this study.\nFor CD62P labeling of platelets, 100 μl of diluted blood collected from the circuits were immediately incubated with 20 μl of PE-anti-CD62P antibody (Becton Dickinson) for 20 minutes at room temperature in a polypropylene tube, Then the mixture was treated with FACS Lysing Solution as described above. The microcentrifuge tubes were centrifuged at 12000. g for 5 minutes. The platelets were washed in PBS/BSA 01%, fixed in 1% paraformaldehyde and then analyzed as described above. For double labeling to concomitantly identify the platelet population, 5 μl of FITC-anti-CD61 antibody were added for incubation together with PE-anti-CD62P antibody.\nas §4"}, "[4]": {"system": "sC5b-9 in Normal Heparinized Whole Human Blood", "experiment": "sC5b-9 ELISA after tubing loop model of cardiopulmonary bypass", "settings": "for inhibition of sC5b-9 formation / complement activity in whole blood / inhibition of sC5b-9 formation: 2 hour tubing loop rotation", "protocol": "An aliquot of the plasma following the 2 hour tubing loop rotation in bypass was evaluated for sC5b-9 using ELISA kit from Quidel Corporation.\nPreparation of Tubing Loops: Tubing loops (PVC, cat # . . . VWR Scientific) were prepared by cutting a piece of polyvinyl tubing and connecting the ends of the tubing with a piece of silicone plug. Blood was drawn using 16 gauge needled from fasting healthy donors. The blood volume of 45 was drawn into a 50 ml polypropylene tube containing a final concentration of 5 units of heparin per ml of blood. The blood was diluted with 35 ml plasmalyte. The diluted blood (2 ml) was filled in each tubing loop. Duplicate tubing loops were prepared for each treatment. Blood samples were prepared as follows; no treatment, treated with various concentrations of Dextran Sulfate.\n(2) Tubing Loop Operation and Sampling: The concentration of Dextran Sulfate was chosen based upon in vitro assay and the concentration of plasma. Concentrations of Dextran Sulfate in range of 800 μg/ml, 400 μg/ml, 200 μg/ml, 100 μg/ml, and 40 μg/ml. Prior to the addition of the untreated and treated blood to the extracorporeal circuit, a blood sample was taken from the stock of diluted blood and is designated baseline control. At that time, various concentrations of Dextran Sulfate in blood will be filled into the tubing loop. Following a 2 hours rotation at 37°, tubing loop samples were transferred to 2 ml polypropylene tubes and plasma samples were prepared by immediate centrifugation at 2,000 g. […] A number of controls were put into place. From the donor we obtained serum, heparinized whole blood plasma, unrotated controls, rotated controls, and Dextran Sulfate treated samples.\nPlasma aliquots for measuring sC5b-9 in ELISA. Aliquots were appropriately diluted for the measurements of sC5b-9 complex in plasma."}, "[5]": {"system": "Alternative Pathway (AP) Activation in a Rabbit Erythrocyte Assay", "experiment": "Alternative pathway-dependent hemolysis of rabbit erythrocytes in normal human serum", "settings": "for inhibition of AP-dependent hemolysis: 10 μg/ml", "protocol": "X axis is time of hemolysis in seconds and Y-axis is scattering at 700 nm. Methods: Normal human serum 10% was incubated with rabbit erythrocytes in AP buffer with and without Dextran Sulfate. Various concentrations of Dextran Sulfate were used ranging from 1 to 60 μg/ml.\nThe Dextran Sulfate (40,000 molecular weight) was examined in the alternative pathway dependent hemolysis assay. […] Normal human serum, at various concentrations in Gelatin Veronal Buffer (GVB) (Advanced Research Technology) with 5 mM MgCl2 and 10 mM EGTA, was incubated with 37° C. with a fixed number of rabbit erythrocytes (Advanced Research Technology). A progressive decrease in light scatter (due to lysis of intact cells) was measured at 700 nm as a function of time in a temperature-controlled ELISA plate reader. […] The data were recorded and analyzed with a SpectraMax 190 plate reader and SoftMax Pro software.\nWe evaluated Dextran Sulfate effect in a cellular assay as a means of examining the effects of the Dextran Sulfate on alternative pathway function. Increasing amounts of the Dextran Sulfate were added to 10% human serum that was incubated with rabbit erythrocytes at 37° C."}}, "note": "Entries after “also recorded” stand apart in the source; their conditions may differ.", "data": [{"substance": "Dextran Sulfate [NM3014]", "values": [{"measurement": "inhibition of neutrophil activation", "setting": "[1]; 40 μg/ml", "value": "no effect"}, {"measurement": "inhibition of neutrophil activation", "setting": "[1]; 40 μg/ml, listed as Dextran Sulfate", "value": "No inhibition"}, {"measurement": "inhibition of neutrophil activation", "setting": "[1]; 800 to 100 μg/ml", "value": "inhibited; also recorded: prevents neutrophil activation"}, {"measurement": "inhibition of neutrophil activation", "setting": "[1]; 800 to 100 μg/ml, listed as Dextran Sulfate", "value": "inhibits neutrophil activation"}, {"measurement": "inhibition of monocyte activation", "setting": "[2]; 40 μg/ml", "value": "no effect"}, {"measurement": "inhibition of monocyte activation", "setting": "[2]; 100 μg/ml", "value": "inhibited; also recorded: prevents monocyte activation"}, {"measurement": "inhibition of monocyte activation", "setting": "[2]; 100 μg/ml, listed as Dextran Sulfate", "value": "down regulates CD11b expression"}, {"measurement": "platelet activation", "setting": "[3]; 40 μg/ml, above control levels", "value": "activates platelet"}, {"measurement": "platelet activation", "setting": "[3]; 100 μg/ml, above control levels", "value": "activates platelet"}, {"measurement": "platelet activation", "setting": "[3]; treated samples compared to untreated controls, concentration not stated", "value": "increased CD62P staining"}, {"measurement": "platelet activation", "setting": "[3]; treated samples compared to untreated controls, concentration not stated, listed as Dextran Sulfate", "value": "activates platelets"}, {"measurement": "inhibition of sC5b-9 formation / complement activity in whole blood", "setting": "[4]; 40 μg/ml", "value": "no inhibition; also recorded: does not inhibit complement activity"}, {"measurement": "inhibition of sC5b-9 formation / complement activity in whole blood", "setting": "[4]; 100 μg/ml", "value": "complete inhibition; also recorded: inhibits complement activity; also recorded: inhibition of complement activity"}, {"measurement": "inhibition of sC5b-9 formation", "setting": "[4]; 400 μg/ml", "value": "complete inhibition"}, {"measurement": "inhibition of sC5b-9 formation", "setting": "[4]; 800 μg/ml", "value": "complete inhibition"}, {"measurement": "inhibition of sC5b-9 production", "setting": "[4]; all doses up to 100 μg/ml", "value": "completely inhibited"}, {"measurement": "inhibition of AP-dependent hemolysis", "setting": "[5]; 10% human serum", "value": "inhibits hemolysis"}, {"measurement": "inhibition of AP-dependent hemolysis", "setting": "[5]; 10% human serum, listed as Dextran Sulfate", "value": "caused inhibition"}, {"measurement": "inhibition of complement AP (hemolysis)", "setting": "[5]; 30 μg/ml, 10% human serum", "value": "Total inhibition"}, {"measurement": "inhibition of erythrocyte lysis / AP function", "setting": "[5]; increasing concentrations, human serum", "value": "completely blocking MAC-mediated cellular destruction; also recorded: full inhibition"}]}]}
